In patent US11298363B2, “Triazolobenzazepines as vasopressin V1a receptor antagonists” (RICHTER GEDEON NYRT., priority 2017, dated 2022):

Key:
[1] = target: human vasopressin V2 receptor (Homo sapiens, UniProt P30518); experiment: Human vasopressin V2 receptor binding assay on 1321N1 cell line; details: 1321N1 cell line; read-out: Ki on hV2 1321N1 cell line
Description: Human Vasopressin V2 Receptor Binding Assay Cells and Radioligand
To determine the final affinity value, the results of at least two independent experiments were taken into account.
Non-specific binding values were determined in the presence of an unlabeled 1.2×10^−6 M (Arg^8)-vasopressin. Samples were incubated in a total volume of 0.55 ml for 90 minutes at 27° C. Membrane-bound and free ligands were separated by filtration through a 0.5% polyethyleneimine-impregnated UniFilter® GF/B™. After drying the filter plates, 40 μl Microscint-20 (Packard) scintillation cocktail was added to the samples. Finally, radioactivity was measured using MicroBeta^2 Microplate Counter (Perkin Elmer).
The radioligand displacement ability of a substance is determined in at least two independent experiments. Specific radioligand binding can be defined as the difference between total and non-specific binding in the presence of a saturation amount of the unlabeled ligand or different concentrations of the substance to be tested. The results are given as a percentage of inhibition of the specific binding achieved in the presence of the substance to be tested.
During fitting, the asymptotes are not fixed. The Ki values (inhibition constant) are given with Cheng-Prusoff equation Ki=IC50/[1+(L/KD)] wherein [L] is the radioligand concentration used in the experiment and [KD] is the affinity of the radioactively labelled ligand for the given receptor. The KD is determined beforehand using the Scatchard curve.

[2] = target: human vasopressin V1a receptor (Homo sapiens, UniProt P37288); experiment: Functional assay on human vasopressin V1a receptor expressing cell line (intracellular Ca2+ fluorescence); format: cell-based; details: 1321N1 cells, (Arg8)-vasopressin at EC80; read-out: IC50 (nM) on hV1a cell line
human vasopressin V1a receptor, sequence (P37288 whole entry): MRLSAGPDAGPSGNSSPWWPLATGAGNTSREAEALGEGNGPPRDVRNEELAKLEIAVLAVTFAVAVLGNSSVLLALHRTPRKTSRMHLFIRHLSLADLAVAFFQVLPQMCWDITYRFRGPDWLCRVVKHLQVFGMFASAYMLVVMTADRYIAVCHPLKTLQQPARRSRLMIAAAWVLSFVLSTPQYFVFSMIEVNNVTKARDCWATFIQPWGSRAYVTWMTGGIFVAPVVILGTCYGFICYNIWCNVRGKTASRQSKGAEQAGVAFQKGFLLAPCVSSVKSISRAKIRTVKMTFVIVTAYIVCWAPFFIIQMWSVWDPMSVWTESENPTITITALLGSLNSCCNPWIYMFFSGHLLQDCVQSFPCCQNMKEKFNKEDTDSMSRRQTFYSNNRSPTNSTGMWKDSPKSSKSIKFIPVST

human vasopressin V2 receptor, sequence (P30518 whole entry): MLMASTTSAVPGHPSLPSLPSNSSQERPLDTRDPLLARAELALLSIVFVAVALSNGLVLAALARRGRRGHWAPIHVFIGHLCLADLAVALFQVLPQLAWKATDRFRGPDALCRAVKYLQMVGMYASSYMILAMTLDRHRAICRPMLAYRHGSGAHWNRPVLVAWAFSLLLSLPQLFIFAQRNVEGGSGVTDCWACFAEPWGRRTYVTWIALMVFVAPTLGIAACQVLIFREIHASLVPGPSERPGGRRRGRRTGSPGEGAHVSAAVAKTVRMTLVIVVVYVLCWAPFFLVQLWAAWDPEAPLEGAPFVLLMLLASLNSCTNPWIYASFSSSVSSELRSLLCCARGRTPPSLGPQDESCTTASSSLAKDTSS

SMILES	Ki [1]	IC50 [2]
N[C@@H]1Cc2cc(Cl)ccc2-n2c(nnc2[C@H]2CC[C@H](Oc3ccccn3)CC2)C1 [Example 8, (5R)-8-chloro-1-[trans-4-(pyridin-2-yloxy)cyclohexyl]-5,6-dihydro-4H-[1,2,4]triazolo[4,3-a][1]benzazepine-5-amine]	3050 nM	6.8 nM
c1ccc(O[C@H]2CC[C@H](c3nnc4n3-c3ccccc3CC3(C4)OCCO3)CC2)nc1 [Example 63, 1′-[trans-4-(pyridin-2-yloxy)cyclohexyl]-4′H,6′H-spiro[1,3-dioxolane-2,5′-[1,2,4]triazolo[4,3-a][1]benzazepine]]	575 nM	1.4 nM
O=C1Cc2cc(Cl)ccc2-n2c(nnc2[C@H]2CC[C@H](Oc3ccccn3)CC2)C1 [Example 54, 8-chloro-1-[trans-4-(pyrin-2-yloxy)cyclohexyl]-4H-[1,2,4]triazolo[4,3-a][1]benzazepin-5(6H)-one]	662 nM	1.2 nM
CC(=O)NC1Cc2cc(Cl)ccc2-n2c(nnc2[C@H]2CC[C@H](Oc3ccccn3)CC2)C1 (stereo partly drawn) [Example 9, N-{8-chloro-1-[trans-4-(pyridin-2-yloxy)cyclohexyl]-5,6-dihydro-4H-[1,2,4]triazolo[4,3-a][1]benzazepin-5-yl}acetamide]	1190 nM	3 nM

Compounds with a lower Ki [1], results first:

Ki [1]	IC50 [2]	SMILES
469 nM	1.1 nM	OC1Cc2cc(Cl)ccc2-n2c(nnc2[C@H]2CC[C@H](Oc3ccccn3)CC2)C1 (stereo partly drawn) [Example 55, 8-chloro-1-[trans-4-(pyridin-2-yloxy)cyclohexyl]-5,6-dihydro-4H-[1,2,4]triazolo[4,3-a][1]benzazepin-5-ol]
446 nM	1.8 nM	O[C@@H]1Cc2cc(Cl)ccc2-n2c(nnc2[C@H]2CC[C@H](Oc3ccccn3)CC2)C1 [Example 57, (5R)-8-chloro-1-[trans-4-(pyridin-2-yloxy)cyclohexyl]-5,6-dihydro-4H-[1,2,4]triazolo[4,3-a][1]benzazepin-5-ol]
53 nM	1.1 nM	Brc1ccc2c(c1)CC1(Cc3nnc([C@H]4CC[C@H](Oc5ccccn5)CC4)n3-2)OCCO1 [Example 62, 8′-bromo-1′-[trans-4-(pyridin-2-yloxy)cyclohexyl]-4′H,6′H-spiro[1,3-dioxolane-2,5′ [1,2,4]triazolo[4,3-a][1]benzazepine]]
